Data as given in patent US7459522B2 (Affymax, Inc., priority 1999, dated 2008).
Bridge positions count the residues as written; N and C are the ends. Square brackets hold non-standard residues; d marks the D form. Ends that are not written are not given here. I, II: the chains in the order shown. 1Nal = N[C@@H](Cc1cccc2ccccc12)C(=O)O; βAla = NCCC(=O)O

Assays:
[1] = target: T1, huEPOR (Homo sapiens, UniProt P19235); assay: Ba/F3-huEPOR cell proliferation assay; format: cell-based; conditions: for EC50: concentration required to produce 50% of the maximal activity obtained with recombinant erythropoietin
T1 construct: expressed in transfected cells; host or cells: Ba/F3 (murine pro-B line, own knowledge) carrying huEPOR
T1 sequence (P19235 25-508): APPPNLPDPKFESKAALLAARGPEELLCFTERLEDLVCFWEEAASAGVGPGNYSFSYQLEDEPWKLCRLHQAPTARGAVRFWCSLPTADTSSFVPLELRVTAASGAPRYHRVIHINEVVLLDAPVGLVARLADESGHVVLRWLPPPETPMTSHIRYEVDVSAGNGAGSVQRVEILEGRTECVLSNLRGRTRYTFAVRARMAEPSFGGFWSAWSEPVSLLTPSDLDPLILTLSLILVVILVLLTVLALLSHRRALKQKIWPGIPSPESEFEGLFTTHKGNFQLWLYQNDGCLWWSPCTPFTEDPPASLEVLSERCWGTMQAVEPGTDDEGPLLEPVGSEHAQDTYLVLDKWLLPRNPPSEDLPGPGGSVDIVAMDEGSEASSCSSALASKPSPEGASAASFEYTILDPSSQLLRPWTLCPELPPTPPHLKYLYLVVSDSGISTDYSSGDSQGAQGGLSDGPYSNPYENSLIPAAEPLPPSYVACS
Source text: The protocol for each assay is described in Wrighton et al. (1997) Nature Biotechnology 15:1261-1265, and in U.S. Pat. Nos. 5,773,569 and 5,830,851, both to Wrighton et al. and cited earlier herein.

[2] = target: EPO receptor; conditions: single class of binding sites, 300 to 600 per cell surface; cited from earlier work

Row | Substance | EC50 [1] | also measured
1 | I: GGTYSCHFGPLT[1Nal]VCRPQGG[βAla]K-NH2 / II: GGTYSCHFGPLT[1Nal]VCRPQGG[βAla] (amide I:22-II:C; cysteines drawn unpaired) [Example 3] | 5 nM | 
2 | I: GGTYSCHFGPLT[1Nal]VCRPQGGK-NH2 / II: GGTYSCHFGPLT[1Nal]VCRPQGG (disulfide I:6-I:15, II:6-II:15; amide I:21-II:C) [Example 6] |  | in vitro bioactivity ([1]; FIG. 5, Isomer 1 compared with Isomer 2, Isomer 3 and the other compounds): noticeably higher
3 | I: GGTYSCHFGPLT[1Nal]VCRPQGGK-NH2 / II: GGTYSCHFGPLT[1Nal]VCRPQGG (amide I:21-II:C; cysteines drawn unpaired) [Example 1] | 6 nM | 
4 | Erythropoietin [EPO] |  | Kd [2]: ~0.8 nM
